PubChem BioAssay AID1259411 (Chemical Carcinogenesis Research Information System (CCRIS), 2018)
Calls of active or inactive are those of the source. How the calls were made is not given here.

System: rodent carcinogenicity bioassays, tumor incidence
Experiment: CCRIS carcinogenicity studies
How it was run: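 NCI-built, expert-reviewed records of carcinogenicity and related test outcomes (mutagenicity, tumor promotion/inhibition) compiled from published and report sources, historical span 1985-2011, not updated.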

## Nc1ccc([N+](=O)[O-])cc1N
Species: MOUSE, Strain/Sex: B6C3F1/FEMALE, Route: ORAL, Dose: 0, 3750, 7500 PPM IN DIET, Dose: 0, 3750, 7500 PPM IN DIET
  carcinogen call: inactive; negative
Species: MOUSE, Strain/Sex: B6C3F1/MALE, Route: ORAL, Dose: 0, 3750, 7500 PPM IN DIET, Dose: 0, 3750, 7500 PPM IN DIET
  carcinogen call: inactive; negative
Species: RAT, Strain/Sex: F344/FEMALE, Route: ORAL, Dose: 0, 375, 750 PPM IN DIET, Dose: 0, 375, 750 PPM IN DIET
  carcinogen call: inactive; negative
Species: RAT, Strain/Sex: F344/MALE, Route: ORAL, Dose: 0, 375, 750 PPM IN DIET, Dose: 0, 375, 750 PPM IN DIET
  carcinogen call: inactive; negative

## c1ccc2cc3c(ccc4ccccc43)cc2c1
Species: MOUSE, Route: DERMAL, Tumor Site: Type of Lesion: INTEGUMENTARY SYSTEM (SKIN)
  carcinogen call: active; positive
Species: MOUSE, Route: IMPLANT, Tumor Site: Type of Lesion: URINARY BLADDER
  carcinogen call: active; positive
Species: MOUSE, Route: ORAL, Tumor Site: Type of Lesion: LIVER, LUNG
  carcinogen call: active; positive
Species: MOUSE, Route: SUBCUTANEOUS, Tumor Site: Type of Lesion: INJECTION SITE
  carcinogen call: active; positive
Species: MOUSE, Strain/Sex: B6C3F1/MALE, Route: INTRAPERITONEAL, Dose: 0, 1600 NMOL IN 35 µL DMSO TOTAL DOSE AT 1 D (1/7 TOTAL DOSE), 8 D (2/7 TOTAL DOSE), AND 15 D (4/7 TOTAL DOSE) OF AGE (S, Tumor Site: Type of Lesion: LIVER: ADENOMA, CARCINOMA
  carcinogen call: active; positive
Species: MOUSE, Strain/Sex: SWISS/MALE,FEMALE, Route: INTRAPERITONEAL, Dose: 0, 2800 NMOL TOTAL DOSE, D 1, 8, AND 15 OF LIFE, Dose: 0, 2800 NMOL TOTAL DOSE, D 1, 8, AND 15 OF LIFE, Tumor Site: Type of Lesion: LUNG: ADENOMA, MALIGNANT LYMPHOMA
  carcinogen call: active; positive

## CCC1CO1 (stereo not drawn)
Species: MOUSE, Strain/Sex: B6C3F1/FEMALE, Route: INHALATION, Dose: 0, 50, 100 PPM 6 HR/D 5D/WK FOR 102 WK (STUDY DURATION: 103 WK), Dose: 0, 50, 100 PPM 6 HR/D 5D/WK FOR 102 WK (STUDY DURATION: 103 WK)
  carcinogen call: inactive; negative
Species: MOUSE, Strain/Sex: B6C3F1/MALE, Route: INHALATION, Dose: 0, 50, 100 PPM 6 HR/D 5D/WK FOR 102 WK (STUDY DURATION: 103 WK), Dose: 0, 50, 100 PPM 6 HR/D 5D/WK FOR 102 WK (STUDY DURATION: 103 WK)
  carcinogen call: inactive; negative
Species: RAT, Strain/Sex: F344/FEMALE, Route: INHALATION, Dose: 0, 200, 400 PPM 6 HR/D 5 D/WK FOR 103 WK (STUDY DURATION: 104 WK), Dose: 0, 200, 400 PPM 6 HR/D 5 D/WK FOR 103 WK (STUDY DURATION: 104 WK), Tumor Site: Type of Lesion: NASAL CAVITY: PAPILLARY ADENOMA
  carcinogen call: equivocal
Species: RAT, Strain/Sex: F344/MALE, Route: INHALATION, Dose: 0, 200, 400 PPM 6 HR/D 5D/WK FOR 103 WK (STUDY DURATION: 104 WK), Dose: 0, 200, 400 PPM 6 HR/D 5D/WK FOR 103 WK (STUDY DURATION: 104 WK), Tumor Site: Type of Lesion: NASAL CAVITY: PAPILLARY ADENOMA, LUNG: ALVEOLAR/BRONCHIOLAR CARCINOMA, LUNG: ALVEOLAR/BRONCHIOLAR ADENOMA OR CARCINOMA, Tumor Site: Type of Lesion: NASAL CAVITY: PAPILLARY ADENOMA, LUNG: ALVEOLAR/BRONCHIOLAR CARCINOMA, LUNG: ALVEOLAR/BRONCHIOLAR ADENOMA OR CARCINOMA
  carcinogen call: active; positive

## O=C(O)CCCOc1ccc(Cl)cc1Cl
Species: MOUSE, Strain/Sex: ICR/FEMALE, Route: ORAL, Dose: 0, 25, 250, 750 PPM IN DIET FOR 78 WK (STUDY DURATION: 78 WK), Dose: 0, 25, 250, 750 PPM IN DIET FOR 78 WK (STUDY DURATION: 78 WK)
  carcinogen call: inactive; negative
Species: MOUSE, Strain/Sex: ICR/MALE, Route: ORAL, Dose: 0, 25, 250, 750 PPM IN DIET FOR 78 WK (STUDY DURATION: 78 WK), Dose: 0, 25, 250, 750 PPM IN DIET FOR 78 WK (STUDY DURATION: 78 WK)
  carcinogen call: inactive; negative
Species: RAT, Strain/Sex: SPRAGUE-DAWLEY/FEMALE, Route: ORAL, Dose: 0, 60, 600, 1800 PPM IN DIET FOR 104 WK (STUDY DURATION: 104 WK), Dose: 0, 60, 600, 1800 PPM IN DIET FOR 104 WK (STUDY DURATION: 104 WK)
  carcinogen call: inactive; negative
Species: RAT, Strain/Sex: SPRAGUE-DAWLEY/MALE, Route: ORAL, Dose: 0, 60, 600, 1800 PPM IN DIET FOR 104 WK (STUDY DURATION: 104 WK), Dose: 0, 60, 600, 1800 PPM IN DIET FOR 104 WK (STUDY DURATION: 104 WK)
  carcinogen call: inactive; negative

## O=C([O-])c1cc(N=Nc2ccc(-c3ccc(N/N=c4/c(=O)cc/c(=N\Nc5cc(S(=O)(=O)[O-])ccc5[O-])c4=O)cc3)cc2)ccc1[O-].[Cu+2].[Na+].[Na+]
Species: RAT, Strain/Sex: F344/FEMALE, Route: ORAL, Dose: 0, 190, 375, 750, 1500, 3000 PPM IN DIET FOR 91 D (STUDY DURATION: 93 D), Dose: 0, 190, 375, 750, 1500, 3000 PPM IN DIET FOR 91 D (STUDY DURATION: 93 D), Tumor Site: Type of Lesion: LIVER: HEPATOCELLULAR CARCINOMA OR NEOPLASTIC NODULE, FOCI OF CELLULAR ALTERATION OR BASOPHILIC FOCI
  carcinogen call: active; positive
Species: RAT, Strain/Sex: F344/MALE, Route: ORAL, Dose: 0, 190, 375, 750, 1500, 3000 PPM IN DIET FOR 91 D (STUDY DURATION: 93 D), Dose: 0, 190, 375, 750, 1500, 3000 PPM IN DIET FOR 91 D (STUDY DURATION: 93 D), Tumor Site: Type of Lesion: LIVER: FOCI OF CELLULAR ALTERATION OR BASOPHILIC FOCI
  carcinogen call: active; positive

## FCCl
Species: RAT, Strain/Sex: WISTAR/MALE,FEMALE, Route: GAVAGE, Dose: 300 MG/KG IN CORN OIL 5/WK FOR 52 WK, Tumor Site: Type of Lesion: STOMACH: SQUAMOUS CELL CARCINOMA, FIBROSARCOMA
  carcinogen call: active; positive

## NCCCCCCCCCCC(=O)O
Species: MOUSE, Strain/Sex: B6C3F1/FEMALE, Route: ORAL, Dose: 0, 7500, 15000 PPM IN DIET FOR 103 WK (STUDY DURATION: 103 WK), Dose: 0, 7500, 15000 PPM IN DIET FOR 103 WK (STUDY DURATION: 103 WK)
  carcinogen call: inactive; negative
Species: MOUSE, Strain/Sex: B6C3F1/MALE, Route: ORAL, Dose: 0, 7500, 15000 PPM IN DIET FOR 103 WK (STUDY DURATION: 103 WK), Dose: 0, 7500, 15000 PPM IN DIET FOR 103 WK (STUDY DURATION: 103 WK), Tumor Site: Type of Lesion: HEMATOPOIETIC SYSTEM: MALIGNANT LYMPHOMA
  carcinogen call: equivocal
Species: RAT, Strain/Sex: F344/FEMALE, Route: ORAL, Dose: 0, 7500, 15000 PPM IN DIET FOR 104 WK (STUDY DURATION: 104 WK), Dose: 0, 7500, 15000 PPM IN DIET FOR 104 WK (STUDY DURATION: 104 WK)
  carcinogen call: inactive; negative
Species: RAT, Strain/Sex: F344/MALE, Route: ORAL, Dose: 0, 7500, 15000 PPM IN DIET FOR 104 WK (STUDY DURATION: 104 WK), Dose: 0, 7500, 15000 PPM IN DIET FOR 104 WK (STUDY DURATION: 104 WK), Tumor Site: Type of Lesion: LIVER: NEOPLASTIC NODULE, URINARY BLADDER: TRANSITIONAL CELL CARCINOMA
  carcinogen call: active; positive

## O=C(Cn1ccnc1[N+](=O)[O-])NCc1ccccc1
Species: MOUSE, Strain/Sex: SWISS/FEMALE, Route: INTRAPERITONEAL, Dose: 0, 8 UG/G BW 1/D FOR 30 DAYS (STUDY DURATION: LIFETIME), Tumor Site: Type of Lesion: LYMPHATIC SYSTEM: LYMPHOMA
  carcinogen call: active; positive
Species: MOUSE, Strain/Sex: SWISS/FEMALE, Route: INTRAPERITONEAL, Dose: 0, 8 UG/G BW 1/D FOR 60 DAYS (STUDY DURATION: LIFETIME), Tumor Site: Type of Lesion: LYMPHATIC SYSTEM: LYMPHOMA
  carcinogen call: active; positive

## ClCc1ccccn1
Species: MOUSE, Strain/Sex: B6C3F1/FEMALE, Route: GAVAGE, Dose: 0, 125, 250 MG/KG IN AQ SOLN, Dose: 0, 125, 250 MG/KG IN AQ SOLN
  carcinogen call: inactive; negative
Species: MOUSE, Strain/Sex: B6C3F1/MALE, Route: GAVAGE, Dose: 0, 125, 250 MG/KG IN AQ SOLN, Dose: 0, 125, 250 MG/KG IN AQ SOLN
  carcinogen call: inactive; negative
Species: RAT, Strain/Sex: F344/FEMALE, Route: GAVAGE, Dose: 0, 75, 150 MG/KG IN AQ SOLN, Dose: 0, 75, 150 MG/KG IN AQ SOLN
  carcinogen call: inactive; negative
Species: RAT, Strain/Sex: F344/MALE, Route: GAVAGE, Dose: 0, 75, 150 MG/KG IN AQ SOLN, Dose: 0, 75, 150 MG/KG IN AQ SOLN
  carcinogen call: inactive; negative

## O=[N+]([O-])c1ccc2ccc3c4ccccc4ccc3c2c1
Species: MOUSE, Strain/Sex: ICR/FEMALE, Route: INTRAPERITONEAL, Dose: 0, 100 NMOL (TOTAL DOSE) ADMINISTERED IN 3 SUBDOSES OF 1/7, 2/7, AND 4/7 ON DAYS 1, 8 AND 15 OF LIFE, RESPECTIVELY (STUD
  carcinogen call: inactive; negative
Species: MOUSE, Strain/Sex: ICR/MALE, Route: INTRAPERITONEAL, Dose: 0, 100 NMOL (TOTAL DOSE) ADMINISTERED IN 3 SUBDOSES OF 1/7, 2/7, AND 4/7 ON DAYS 1, 8 AND 15 OF LIFE, RESPECTIVELY (STUD
  carcinogen call: inactive; negative
